Test results: patent US20100178305A1, “ULTRASONIC NANOTHERAPY OF SOLID TUMORS WITH BLOCK COPOLYMERS STABILIZED PERFLUOROCARBON NANODROPLETS” (UNIVERSITY OF UTAH RESEARCH FOUNDATION, priority 2008, published 2010)

What was measured:
[1] = system: MDA MB231 breast cancer cell suspension; test: Ultrasound-induced DOX transfer from bubble walls into cells (fluorescence); format: cell-based; conditions: 0.75 mg/ml Dox/0.5% PEG-PLLA/2% PFP formulation; 3-MHz ultrasound, 2 W/cm^2, 20% duty cycle, 30-s exposure
Text: (B) Fluorescence image of the MDA MB231 cell (thick arrow) and bubble (thin arrow) aggregates formed in the capillary during a 150-s sonication (corresponding to a 30-s ultrasound exposure time) by 3-MHz ultrasound at a 2 W/cm^2 nominal power density with a 20% duty cycle, with the focus on the bubbles. Ultrasound was applied directly to the slide through the Aquasonic coupling gel. (C) Fluorescence image of another cell aggregate of the same sample, with focus on the cells.
The elucidation of this problem would allow designing optimal ultrasound protocols. Previous data was re-evaluated. These experiments were performed by sonicating a nanodroplet/cell mixture placed in a plastic capillary (internal diameter 340 μm) of a snake mixer slide.

[2] = system: red fluorescent protein labeled MiaPaCa-2 cells; test: Orthotopic pancreatic cancer model, chemotherapy with or without ultrasound; format: in vivo, Mice; conditions: no ultrasound treatment
Experimental: Orthotopic pancreatic cancer was inoculated surgically in the pancreatic tail. Mice received a single sub-capsular injection of 1×10^6 red fluorescent protein labeled MiaPaCa-2 cells suspended in 0.125 mL serum free media (DMEM). All procedures were done utilizing a 12× Universal S3B microscope.
Following the primary surgery, high resolution (3456 pixels×2304 pixels) whole body digital images (EOS Digital Rebel, Canon USA, Lake Success, N.Y.) of each mouse were obtained once a week to monitor primary tumor growth and presence of metastases. The red fluorescent protein was visualized with an Illumatool Bright Light System that consisted of a 563 nm excitation filter and a 587 nm emission filter (Model LT-9900, LightTools Research, Encinitas, Calif.). Animals were imaged under nose-cone induced isoflurane general anesthesia. Primary tumor area was quantified using public domain software ImageJ (National Institutes of Health http://rsb.info.nih.gov/ij/).
Animals were randomly assigned to six groups, six animals each: (1) negative control (injection of PBS); (2) GEM at 140 mg/kg (positive control 1); (3) GEN at 20 mg/kg as PTX (positive control 2); (4) GEM+GEN combination treatment; (5) GEN+ultrasound; (6) GEM+nbGEN+ultrasound. […] Nominal ultrasound intensity was 3.4 W/cm^2, which corresponded to a measured MI=0.59. […]

SMILES	Cell fluorescence after sonication (DOX transfer into cells) [1]	Ascitis in ultrasound images [2]
COc1cccc2c1C(=O)c1c(O)c3c(c(O)c1C2=O)C[C@@](O)(C(=O)CO)C[C@@H]3O[C@H]1C[C@H](N)[C@H](O)[C@H](C)O1 [DOX, doxorubicin]	acquired strong fluorescence	–
Nc1ccn([C@@H]2O[C@H](CO)[C@@H](O)C2(F)F)c(=O)n1 [GEM, gemcitabine]	–	clearly visible
